What was measured:
[1] = tested on: aortic elastin; assay: 3H-elastin cleavage assay, aortic elastin; assay type: biochemical
Procedure: (§1) FIG. 2: granzyme B degrades elastin in vitro. Granzyme B was incubated with ^3H-elastin for 7 days at room temperature. Elastase was incubated with ^3H-elastin for 2 hours. Supernatants containing the soluble elastin cleavage fragments were collected and counted. Data is represented as fold increase in radioactivity over the control (elastin only). (n=2)
(§2) Tritiated elastin was prepared with the modifications as described in Banda, M. J. and Werb, Z. (1981) Biochem J 193: 589-605 and Gordon, S., Werb, Z. and Cohn, Z. A. (1976) in In Vitro Methods in Cell Mediated and Tumor Immunity, eds. Bloom, B. R. and David, J. R. (Academic Press, New York), pages 349-350. 1 mg of skin or aortic elastin was diluted in 1 ml dH2O and pHed to 9.2. 1 mCi NaB3H4 (PerkinElmer, Waltham Mass.) and 2 mg of non-radioactive […] (Sigma, St. Louis, Mo.) was added. After 2 hours of incubation, the pH was adjusted to 3.0 and the elastin was incubated for an additional 30 minutes. The elastin was centrifuged for 3 minutes at 5000×g and the pellet was repeatedly washed to remove excess NaB3H4. […] The radioactivity of the soluble, cleaved elastin fragments in the supernatant was counted in Ready Safe Scintillation Fluid (Beckman-Coulter, Fullerton, Calif.). The radioactivity of the cleaved, soluble elastin fragments was 4.8 times and 2.7 times higher than background for skin and aortic elastin, respectively (FIG. 2).

[2] = tested on: skin elastin; assay: 3H-elastin cleavage assay, skin elastin; assay type: biochemical
Procedure: as §1, §2

[3] = 25 μg elastase, 2 hours, positive control
[4] = 0.15 mg 3H-elastin, granzyme B 0.75 μg added 5 times, room temperature, 7 days

Substance: elastase
- radioactivity increase over background [1, 3]: 7.7 fold
- radioactivity increase over background [2, 3]: 14.9 fold

Substance: granzyme B: serine protease that is capable of cleaving elastin and other extracellular proteins
- radioactivity of the cleaved, soluble elastin fragments, higher than background [1, 4]: 2.7 times
- radioactivity of the cleaved, soluble elastin fragments, higher than background [2, 4]: 4.8 times
